Measurements published in patent US20040082662A1, “Polyisoprenylbenzophenone derivatives, processes for their preparation and use thereof” (Aventis Pharma Deutschland Gmbh, priority 2002, published 2004).

Columns and labels:
[1] = system: Staphylococcus aureus; assay: Test of the antibacterial activity (agar plate, antibiotic test sheets, inhibition halo); format: cell-based; settings: 16 hours at 37° C.
Protocol: For the test of the antibacterial action, agar plates containing 2 ml of Staphylococcus aureus sowing in 200 ml of agar solution were firstly prepared. Makandechamone was applied in a 1 mg/ml solution to antibiotic test sheets (Schleicher and Schüll) having a diameter of 6 mm and placed on the agar plate. The inoculated Staphylococcus plates were incubated for 16 hours at 37° C. Inhibition halos having the following diameters (mm) were then observed: […]

[2] = Solubility (physicochemical properties)
From the text: (§1) Stable in neutral and acidic medium.

[3] = Stability (physicochemical properties); settings: neutral and acidic medium
From the text: as §1

[4] = system: certain bee-pathogenic bacteria; settings: cited from earlier work
[5] = system: HIV; settings: cited from earlier work

Molecule: C=C1CC(C)(C)CCC1CC12CC(CC=C(C)C)C(C)(C)C(C(=O)c3ccccc3)(C1=O)C(O)=C(CC=C(C)C)C2=O (stereo not drawn) [makandechamone]
- Inhibition halo size ([1]; 10 μl of 1 mg/ml solution on 6 mm test sheet): 7 mm
- Inhibition halo size ([1]; 20 μl of 1 mg/ml solution on 6 mm test sheet): 12 mm
- Inhibition halo size ([1]; 40 μl of 1 mg/ml solution on 6 mm test sheet): 14 mm
- Solubility in medium polar and polar organic solvents ([2]; medium polar and polar organic solvents): soluble
- Solubility in water ([2]; water): not very soluble
- Stability [3]: Stable

Molecule: chamone I
- Activity against certain bee-pathogenic bacteria [4]: active

Molecule: guttiferone F
- HIV-inhibitory action [5]: HIV-inhibitory action

Molecule: nemorosome II
- Activity against certain bee-pathogenic bacteria [4]: active
